From patent publication US8202868B2, “4-piperazinyl-pyrimidine compounds suitable for treating disorders that respond to modulation of the dopamine D3 receptor” (Abbott GmbH & Co. KG, priority 2004, dated 2012) come the findings set out here.

Structures can show the parent of a compound that is named as a salt.

The Ki is a measure of affinity in units of concentration, obtained from inhibition or displacement.

Experiment [1] has as its target T1, human dopamine D3 receptors (Homo sapiens, UniProt P35462).
T1 construct: expressed in transfected cells; host or cells: HEK-293
The experiment in a line: Dopamine D3 receptor binding, [125I]-iodosulpride displacement. The following applies: for Ki: membranes of HEK-293 cells, 0.1 nM [125I]-iodosulpride, 25° C., 60 minutes; for Ki(D2)/Ki(D3): selectivity ratio of receptor binding constants. The method, then:
(§1) The substance to be tested was either dissolved in methanol/Chremophor® (BASF-AG) or in dimethyl sulfoxide and then diluted with water to the desired concentration.
(§2) Each assay mixture was run in triplicate.
The incubation buffer contained 50 mM tris, 120 mM NaCl, 5 mM KCl, 2 mM CaCl2, 2 mM MgCl2 and 0.1% bovine serum albumin, 10 μM quinolone and 0.1% ascorbic acid (prepared fresh daily). The buffer was adjusted to pH 7.4 with HCl.
(§3) After having been incubated at 25° C. for 60 minutes, the assay mixtures were filtered through a Whatman GF/B glass fiber filter under vacuum using a cell collecting device. The filters were transferred to scintillation viols using a filter transfer system. After 4 ml of Ultima Gold® (Packard) have been added, the samples were shaken for one hour and the radioactivity was then counted in a Beta-Counter (Packard, Tricarb 2000 or 2200CA). The cpm values were converted into dpm using a standard quench series and the program belonging to the instrument.
(§4) The inhibition curves were analyzed by means of iterative nonlinear regression analysis using the Statistical Analysis System (SAS) which is similar to the “LIGAND” program described by Munson and Rodbard.

The target of experiment [2] is T2, human dopamine D2L receptors (long isoform) (Homo sapiens, UniProt P14416).
T2 construct: expressed in transfected cells; host or cells: HEK-293
T2 sequence (P14416 whole entry, canonical isoform): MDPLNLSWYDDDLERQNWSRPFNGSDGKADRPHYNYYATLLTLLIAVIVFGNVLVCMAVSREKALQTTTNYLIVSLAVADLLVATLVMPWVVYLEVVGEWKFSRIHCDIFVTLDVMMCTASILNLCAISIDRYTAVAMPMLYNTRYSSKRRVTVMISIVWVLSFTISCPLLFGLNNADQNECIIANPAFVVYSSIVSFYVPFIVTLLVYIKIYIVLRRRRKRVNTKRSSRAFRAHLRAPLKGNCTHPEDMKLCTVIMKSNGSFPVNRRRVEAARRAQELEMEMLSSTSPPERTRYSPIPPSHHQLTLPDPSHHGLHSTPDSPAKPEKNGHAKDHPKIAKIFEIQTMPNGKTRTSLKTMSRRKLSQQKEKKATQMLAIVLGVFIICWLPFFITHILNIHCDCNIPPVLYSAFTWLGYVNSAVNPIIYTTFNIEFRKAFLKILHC
The experiment in a line: Dopamine D2L receptor binding, [125I] iodospiperone displacement. The following applies: membranes of HEK-293 cells, 0.01 nM [125I] iodospiperone, 25° C., 60 minutes; read-out: Ki(D2). As for the experimental part: as §1, §2
The incubation buffer contained 50 mM tris, 120 mM NaCl, 5 mM KCl, 2 mM CaCl2, 2 mM MgCl2 and 0.1% bovine serum albumin. The buffer was adjusted to pH 7.4 with HCl.
as §3, §4

T1 sequence (P35462 whole entry): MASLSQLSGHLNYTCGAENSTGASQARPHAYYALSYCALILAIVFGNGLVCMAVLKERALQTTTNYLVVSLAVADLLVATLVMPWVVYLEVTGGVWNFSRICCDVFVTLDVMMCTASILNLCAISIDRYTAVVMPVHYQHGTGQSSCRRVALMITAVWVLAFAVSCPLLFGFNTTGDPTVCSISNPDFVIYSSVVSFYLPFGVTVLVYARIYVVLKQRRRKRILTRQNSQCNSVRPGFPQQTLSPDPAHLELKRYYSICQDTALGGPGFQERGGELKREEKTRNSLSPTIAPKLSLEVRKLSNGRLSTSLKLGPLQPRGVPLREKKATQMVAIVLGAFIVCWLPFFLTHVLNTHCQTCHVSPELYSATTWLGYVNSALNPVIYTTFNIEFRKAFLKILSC

In the case of `Cc1nnc(SCCCN2CCN(c3cc(C4(C)CC4)nc(C(C)(C)C)n3)CC2)n1C` [Example 54, 2-tert-butyl-4-{4-[3-(4-methyl-5-methyl-4H-[1,2,4]triazol-3-ylsulfanyl)-propyl]piperazin-1-yl}-6-(1-methyl)cyclopropyl-pyrimidine], in experiment [1], the Ki worked out at 0.00064 µM and the “Ki(D2)/Ki(D3)” value amounted to 124. Also, the Ki in experiment [2] stood at 0.08 µM.

Regarding `Cn1c(SCCCN2CCN(c3cc(C4CC4)nc(C(C)(C)C)n3)CC2)nnc1-c1cnccn1` [Example 56, 2-tert-butyl-4-{4-[3-(5-pyrazin-4-methyl-4H-[1,2,4]triazol-3-ylsulfanyl)-propyl]-piperazin-1-yl}6-cyclopropyl-pyrimidine hydrochloride], in experiment [1], the affinity corresponds to a Ki of 0.00047 µM and the “Ki(D2)/Ki(D3)” value came to 109. Besides, the Ki in experiment [2] was 0.0512 µM.

Consider `Cn1c(SCCCN2CCN(c3cc(C(C)(C)C)nc(C4CC4)n3)CC2)nnc1-c1cnccn1` [Example 57, 2-cyclopropyl-4-{4-[3-(5-pyrazin-4-methyl-4H-[1,2,4]triazol-3-ylsulfanyl)-propyl]-piperazin-1-yl}6-tert-butyl-pyrimidine hydrochloride], for which, in experiment [1], affinity was put at a Ki of 0.00547 µM and the “Ki(D2)/Ki(D3)” value amounted to 296. In addition, in experiment [2], the inhibition constant (Ki) is 1.61 µM.

With `Cn1c(OCCCN2CCN(c3cc(C4(C)CC4)nc(C(C)(C)C)n3)CC2)nnc1-c1ccccc1` [Example 63, 2-tert-Butyl-4-(1-methyl-cyclopropyl)-6-{4-[3-(4-methyl-5-phenyl-4H-[1,2,4]triazol-3-yloxy)-propyl]-piperazin-1-yl}-pyrimidine], the Ki stood at 0.0026 µM in experiment [1] and 0.104 µM in experiment [2]. For the same compound, in experiment [1], the “Ki(D2)/Ki(D3)” value worked out at 40.

As for `Cn1c(OCCCN2CCN(c3cc(C4CCC4)nc(C(C)(C)C)n3)CC2)nnc1-c1ccccc1` [Example 64, 2-tert-Butyl-4-cyclobutyl-6-{4-[3-(4-methyl-5-phenyl-4H-[1,2,4]triazol-3-yloxy)-propyl]-piperazin-1-yl}-pyrimidine], in experiment [1], the inhibition constant (Ki) turned out to be 0.0016 µM and the “Ki(D2)/Ki(D3)” value was determined as 92. Besides, in experiment [2], the Ki came to 0.147 µM.

As for `Cn1cnnc1SCCCN1CCN(c2cc(C(F)(F)F)nc(C3(C)CC3)n2)CC1` [Example 65, 2-(1-Methyl-cyclopropyl)-4-{4-[3-(4-methyl-4H-[1,2,4]triazol-3-ylsulfanyl)-propyl]-piperazin-1-yl}-6-trifluoromethyl-pyrimidine], in experiment [1], the affinity, expressed as Ki, was 0.0221 µM and the “Ki(D2)/Ki(D3)” value is recorded as 36. Also, the Ki in experiment [2] came to 0.797 µM.

As for `Cl.Cn1cccc1-c1nnc(SCCCN2CCN(c3cc(C4CCC4)nc(C(C)(C)C)n3)CC2)n1C` [Example 66, 2-tert-Butyl-4-cyclobutyl-6-(4-{3-[4-methyl-5-(1-methyl-1H-pyrrol-2-yl)-4H-[1,2,4]triazol-3-ylsulfanyl]-propyl}-piperazin-1-yl)-pyrimidine hydrochloride], in experiment [1], affinity was put at a Ki of 0.00096 µM and the “Ki(D2)/Ki(D3)” value amounted to 106. In experiment [2], the Ki was determined as 0.102 µM.
